Measurements reported in US12497359B2, “Acrylamide derivatives” (NRG Therapeutics Ltd, priority 2020, dated 2025).

Test system: mPTP
Experiment: mPTP human platelet mitochondria membrane potential flow cytometry assay
Assay type: cell-based
Settings: stimulated human platelets
Protocol: The mPTP cell based assay was performed using a mitochondria membrane potential flow cytometry assay in stimulated human platelets. Simulation of platelets results in the rapid influx of Ca^2+ across the platelet membrane. The Ca^2+ is then sequestered by mitochondria until the threshold for mPTP opening is reached, at which point the pore opens and the mitochondrial membrane potential is dissipated. Changes in mitochondria membrane potential due to mPTP opening can be quantified in live platelets using standard mitochondrial membrane potential dyes e.g. 3,3′-dihexyloxacarbocyanine Iodide; DiOC6 (3), enabling pharmacological characterisation of mPTP inhibitors.
Fresh human blood (20 ml) was collected from consented donors into 3.2% sodium citrate. Platelets were isolated by centrifugation at 200 g for 20 min at room temperature, then the platelet rich plasma layer transferred to a fresh tube. Prostaglandin 12 is added to the platelets at a final concentration of 20 ng/ml. After centrifugation at 640 g for 10 min, the platelet rich pellet was resuspended in 4 ml HEPES assay buffer (137 mM NaCl, 2.7 mM KCl, 11.9 mM NaHCO3, 0.42 mM NaH2PO4, 1 mM MgCl2, 5.5 mM glucose, 0.1% bovine serum albumin, 10 mM HEPES adjusted to pH 7.4) and stored on ice.
Test compounds were prepared from 10 mM stocks in DMSO and serially diluted in assay buffer containing 0.4% DMSO and 25 μl transferred into a 96 well plate. Platelets were loaded with the mitochondrial membrane potential dye DiOC6 (3) (3,3′-dihexyloxacarbocyanine Iodide; Invitrogen) at 200 nM for 30 min, then 50 μl plated into each well of the 96 well plate containing diluted test compound and incubated for 15 min. Control wells included DMSO (0.1% final concentration) only or 5 μM cyclosporin A. Platelets were then stimulation with the addition of assay buffer (25 μl) containing CaCl2, alpha thrombin and Convulxin to achieve a final concentrations of 2 mM, 0.017 U/ml and 0.167 μg/ml respectively and incubated for 14 min. The reaction was stopped by the addition of 25 μl 15 mM EDTA in assay buffer. The mitochondrial membrane potential across the population of platelets in each well was then quantified by flow cytometry using a Guava easyCyte 5 Benchtop Flow Cytometer with 3000 events per well. The percentage of platelets with a depolarised mitochondrial membrane potential was calculated for each well. A pIC50 for each compound was then calculated using a standard four parameter curve fit model (GraphPad Prism).

SMILES | mPTP Human platelets pIC50
C[C@H]1Cc2ccccc2[C@@H]1NC(=O)/C=C/c1ccc2cn[nH]c2c1 (single isomer, unassigned) [Example 14c] | 6.8
O=C(/C=C/c1ccc2cn[nH]c2c1)N[C@@H]1CCc2ccccc21 [Example 3, (R,E)-N-(2,3-dihydro-1H-inden-1-yl)-3-(1H-indazol-6-yl)acrylamide] | 7.3
